As usually defined, the IC50 is the concentration at which inhibition is half-maximal.

Chain of human full-length MKNK1 (Q9BUB5 other isoform, or with tags, fused parts or gaps T344D): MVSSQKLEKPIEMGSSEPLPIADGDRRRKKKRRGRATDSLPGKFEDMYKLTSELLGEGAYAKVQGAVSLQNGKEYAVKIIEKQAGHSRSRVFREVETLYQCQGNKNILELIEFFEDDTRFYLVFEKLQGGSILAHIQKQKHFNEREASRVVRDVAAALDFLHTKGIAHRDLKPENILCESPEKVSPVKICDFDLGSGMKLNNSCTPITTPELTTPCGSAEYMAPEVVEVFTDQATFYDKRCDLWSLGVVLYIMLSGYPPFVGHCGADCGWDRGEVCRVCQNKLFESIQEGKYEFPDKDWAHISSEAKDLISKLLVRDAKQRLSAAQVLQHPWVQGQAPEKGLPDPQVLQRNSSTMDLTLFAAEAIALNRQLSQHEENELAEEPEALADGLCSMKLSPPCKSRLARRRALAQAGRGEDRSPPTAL

In the assay the target is human full-length MKNK1 (Homo sapiens (Human), UniProt Q9BUB5, T344D). Briefly: MKNK1 kinase high ATP assay (TR-FRET). Type of assay: biochemical. As to conditions: high ATP (2 mM final), 15 min preincubation with MKNK1, TR-FRET. Here is the method:
MKNK1 Kinase High ATP Assay
MKNK1-inhibitory activity at high ATP of compounds of the present invention after their preincubation with MKNK1 was quantified employing the TR-FRET-based MKNK1 high ATP assay as described in the following paragraphs.
As substrate for the kinase reaction the biotinylated peptide biotin-Ahx-[…] (C-terminus in amide form) was used, which can be purchased e.g. from the company Biosyntan (Berlin-Buch, Germany).
For the assay 50 nL of a 100 fold concentrated solution of the test compound in DMSO was pipetted into a black low volume 384 well microtiter plate (Greiner Bio-One, Frickenhausen, Germany), 2 μL of a solution of MKNK1 in aqueous assay buffer [50 mM HEPES pH 7.5, 5 mM MgCl2, 1.0 mM dithiothreitol, 0.005% (v/v) Nonidet-P40 (Sigma)] was added and the mixture was incubated for 15 min at 22° C. to allow pre-binding of the test compounds to the enzyme before the start of the kinase reaction. Then the kinase reaction was started by the addition of 3 μL of a solution of adenosine-tri-phosphate (ATP, 3.3 mM=>final conc. in the 5 μL assay volume is 2 mM) and substrate (0.1 μM=>final conc. in the 5 μL assay volume is 0.06 μM) in assay buffer and the resulting mixture was incubated for a reaction time of 30 min at 22° C. The concentration of MKNK1 was adjusted depending of the activity of the enzyme lot and was chosen appropriate to have the assay in the linear range, typical concentrations were in the range of 0.003 μg/mL. The reaction was stopped by the addition of 5 μL of a solution of TR-FRET detection reagents (5 nM streptavidine-XL665 [Cisbio Bioassays, Codolet, France] and 1 nM anti-ribosomal protein S6 (pSer236)-antibody from Invitrogen [#44921G] and 1 nM LANCE EU-W1024 labeled ProteinG [Perkin-Elmer, product no. AD0071]) in an aqueous EDTA-solution (100 mM EDTA, 0.1% (w/v) bovine serum albumin in 50 mM HEPES pH 7.5).
The resulting mixture was incubated for 1 h at 22° C. to allow the formation of complex between the phosphorylated biotinylated peptide and the detection reagents. Subsequently the amount of phosphorylated substrate was evaluated by measurement of the resonance energy transfer from the Eu-chelate to the streptavidine-XL.
For orientation: In TR-FRET formats the signal depends on donor and acceptor labels being close together.
For `O=c1[nH]c2ccc(Nc3ncnc4sc(CC5CC5)nc34)cc2s1` [Example 1, 6-{[2-(Cyclopropylmethyl)[1,3]thiazolo[5,4-d]pyrimidin-7-yl]amino}-1,3-benzothiazol-2(3H)-one], the IC50 turned out to be 37 nM.

For the compound `O=c1[nH]c2ccc(Nc3ncnc4sc(C5CCC5)nc34)cc2s1` [Example 2, 6-[(2-Cyclobutyl[1,3]thiazolo[5,4-d]pyrimidin-7-yl)amino]-1,3-benzothiazol-2(3H)-one], half-maximal inhibition (IC50) was put at 87 nM. Consider `COc1cc2[nH]ncc2cc1Nc1ncnc2sc(Cc3ccccc3)nc12` [Example 4, 2-Benzyl-N-(6-methoxy-1H-indazol-5-yl)[1,3]thiazolo[5,4-d]pyrimidin-7-amine], for which the midpoint of inhibition, the IC50, lay at 20 nM. In turn, `COCc1nc2c(Nc3cc4cn[nH]c4cc3OC)ncnc2s1` [Example 5, N-(6-Methoxy-1H-indazol-5-yl)-2-(methoxymethyl)[1,3]thiazolo[5,4-d]pyrimidin-7-amine] gave an IC50 of 25 nM. The IC50 values of the last two compounds are within 1.5-fold of each other. Compound `COc1cc2[nH]c(=O)sc2cc1Nc1ncnc2sc(C3CCCCC3)nc12` [Example 7, 6-[(2-Cyclohexyl[1,3]thiazolo[5,4-d]pyrimidin-7-yl)amino]-5-methoxy-1,3-benzothiazol-2(3H)-one] returned an IC50 of 354 nM.

`c1nc(Nc2ccc3[nH]ncc3c2)c2nc(C3CCCCC3)sc2n1` [Example 8, 2-Cyclohexyl-N-(1H-indazol-5-yl)[1,3]thiazolo[5,4-d]pyrimidin-7-amine]: the IC50 came out at 56 nM.

Regarding `c1nc(Nc2ccc3[nH]ncc3c2)c2nc(CC3CC3)sc2n1` [Example 9, 2-(Cyclopropylmethyl)-N-(1H-indazol-5-yl)[1,3]thiazolo[5,4-d]pyrimidin-7-amine], the IC50 was 36 nM. This IC50 lies about 1.6-fold lower than the previous one. Turning to `c1nc(Nc2ccc3[nH]ncc3c2)c2nc(C3CCC3)sc2n1` [Example 10, 2-Cyclobutyl-N-(1H-indazol-5-yl)[1,3]thiazolo[5,4-d]pyrimidin-7-amine], 54 nM corresponded to half-maximal inhibition (IC50). In the case of `c1ccc(Cc2nc3c(Nc4ccc5[nH]ncc5c4)ncnc3s2)cc1` [Example 11, 2-Benzyl-N-(1H-indazol-5-yl)[1,3]thiazolo[5,4-d]pyrimidin-7-amine] it was 35 nM; in that of `CC1(O)CN(C(=O)CCc2nc3c(Nc4ccc5[nH]ncc5c4)ncnc3s2)C1` [Example 14, 1-(3-Hydroxy-3-methylazetidin-1-yl)-3-[7-(1H-indazol-5-ylamino)[1,3]thiazolo[5,4-d]pyrimidin-2-yl]propan-1-one], 126 nM; in that of `COc1cc2[nH]ncc2cc1Nc1ncnc2scnc12` [Example 15, N-(6-Methoxy-1H-indazol-5-yl)[1,3]thiazolo[5,4-d]pyrimidin-7-amine], 47 nM.

`c1nc(Nc2ccc3[nH]ncc3c2)c2ncsc2n1` [Example 16, N-(1H-Indazol-5-yl)[1,3]thiazolo[5,4-d]pyrimidin-7-amine] showed an IC50 of 186 nM. Regarding `O=c1[nH]c2ccc(Nc3ncnc4scnc34)cc2s1` [Example 19, 6-([1,3]Thiazolo[5,4-d]pyrimidin-7-ylamino)-1,3-benzothiazol-2(3H)-one], inhibition was half-maximal at 159 nM (IC50). The result for `COc1cc2[nH]ncc2cc1Nc1ncnc2sc(COCc3ccccc3)nc12` [Example 20, 2-[(Benzyloxy)methyl]-N-(6-methoxy-1H-indazol-5-yl)[1,3]thiazolo[5,4-d]pyrimidin-7-amine] reads 36 nM. For `CN(C)C(=O)CCc1nc2c(Nc3ccc4[nH]ncc4c3)ncnc2s1` [Example 21, 3-[7-(1H-Indazol-5-ylamino)[1,3]thiazolo[5,4-d]pyrimidin-2-yl]-N,N-dimethylpropanamide], the 50% inhibitory concentration (IC50) turned out to be 100 nM. This IC50 lies about 2.8-fold higher than the previous one.

Take `COc1cc2[nH]ncc2cc1Nc1ncnc2sc(CCc3ccccc3)nc12` [Example 22, N-(6-Methoxy-1H-indazol-5-yl)-2-(2-phenylethyl)[1,3]thiazolo[5,4-d]pyrimidin-7-amine]: half-maximal inhibition (IC50) was put at 38 nM.

Compound `c1ccc(CCc2nc3c(Nc4ccc5[nH]ncc5c4)ncnc3s2)cc1` [Example 23, N-(1H-indazol-5-yl)-2-(2-phenylethyl)[1,3]thiazolo[5,4-d]pyrimidin-7-amine] gave an IC50 of 51 nM. In the case of `COc1cc2[nH]c(=O)sc2cc1Nc1ncnc2sc(CCc3ccccc3)nc12` [Example 25, 5-Methoxy-6-{[2-(2-phenylethyl)[1,3]thiazolo[5,4-d]pyrimidin-7-yl]amino}-1,3-benzothiazol-2(3H)-one], the IC50 was found to be 10000 nM. Take `COc1cc2[nH]ncc2cc1Nc1ncnc2sc(CCCC(=O)N(C)C)nc12` [Example 26, 4-{7-[(6-Methoxy-1H-indazol-5-yl)amino][1,3]thiazolo[5,4-d]pyrimidin-2-yl}-N, N-dimethylbutanamide]: the IC50 came to 85 nM. `COc1cc2[nH]c(=O)sc2cc1Nc1ncnc2sc(C(=O)N(C)C)nc12` [Example 28, 7-[(5-Methoxy-2-oxo-2,3-dihydro-1,3-benzothiazol-6-yl)amino]-N,N-dimethyl[1,3]thiazolo[5,4-d]pyrimidine-2-carboxamide]: half-maximal inhibition (IC50) was put at 1080 nM. In the case of `CCOc1cc2[nH]ncc2cc1Nc1ncnc2sc(C(=O)N(C)C)nc12` [Example 30, 7-[(6-Ethoxy-1H-indazol-5-yl)amino]-N, N-dimethyl[1,3]thiazolo[5,4-d]pyrimidine-2-carboxamide], the IC50 stood at 42 nM. Take `O=C(c1nc2c(Nc3ccc4[nH]ncc4c3)ncnc2s1)N1CCCCC1` [Example 31, [7-(1H-Indazol-5-ylamino)[1,3]thiazolo[5,4-d]pyrimidin-2-yl](piperidin-1-yl)methanone]: the IC50 was determined as 188 nM. Compound `O=C(c1nc2c(Nc3ccc4[nH]c(=O)sc4c3)ncnc2s1)N1CCCCC1` [Example 32, 6-{[2-(Piperidin-1-ylcarbonyl)[1,3]thiazolo[5,4-d]pyrimidin-7-yl]amino}-1,3-benzothiazol-2(3H)-one] returned an IC50 of 137 nM. The IC50 values of the last two compounds are within 1.5-fold of each other. Regarding `COc1cc2[nH]ncc2cc1Nc1ncnc2sc(C(=O)N3CCCCC3)nc12` [Example 33, {7-[(6-Methoxy-1H-indazol-5-yl)amino][1,3]thiazolo[5,4-d]pyrimidin-2-yl}(piperidin-1-yl)methanone], the IC50 was 17 nM. With `CCOc1cc2[nH]ncc2cc1Nc1ncnc2sc(C(=O)N3CCCCC3)nc12` [Example 34, {7-[(6-Ethoxy-1H-indazol-5-yl)amino][1,3]thiazolo[5,4-d]pyrimidin-2-yl}(piperidin-1-yl)methanone], the IC50 was 34 nM.

The compound `CC(C)Oc1cc2[nH]ncc2cc1Nc1ncnc2sc(C(=O)N3CCCCC3)nc12` [Example 35, Piperidin-1-yl(7-{[6-(propan-2-yloxy)-1H-indazol-5-yl]amino}[1,3]thiazolo[5,4-d]pyrimidin-2-yl)methanone] came in with an IC50 of 102 nM. Regarding `COc1cc2[nH]ncc2cc1Nc1ncnc2sc(C(=O)N(C)CC(=O)N(C)C)nc12` [Example 38, N-[2-(Dimethylamino)-2-oxoethyl]-7-[(6-methoxy-1H-indazol-5-yl)amino]-N-methyl[1,3]thiazolo[5,4-d]pyrimidine-2-carboxamide], the IC50 is 136 nM. With `CN(C)C(=O)CCN(C)C(=O)c1nc2c(Nc3ccc4[nH]c(=O)sc4c3)ncnc2s1` [Example 41, N-[3-(Dimethylamino)-3-oxopropyl]-N-methyl-7-[(2-oxo-2,3-dihydro-1,3-benzothiazol-6-yl)amino][1,3]thiazolo[5,4-d]pyrimidine-2-carboxamide], the IC50 was 2750 nM. In the case of `CN(C)C(=O)c1nc2c(Nc3ccc4[nH]ncc4c3)ncnc2s1` [Example 43, 7-(1H-Indazol-5-ylamino)-N,N-dimethyl[1,3]thiazolo[5,4-d]pyrimidine-2-carboxamide] it was 202 nM. In turn, `COc1cc2[nH]ncc2cc1Nc1ncnc2sc(C(=O)N(C)CCC(=O)N(C)C)nc12` [Example 46, N-[3-(Dimethylamino)-3-oxopropyl]-7-[(6-methoxy-1H-indazol-5-yl)amino]-N-methyl[1,3]thiazolo[5,4-d]pyrimidine-2-carboxamide] displayed an IC50 of 184 nM. This IC50 and that of the compound before are within 1.5-fold of each other.

Source of the values: patent US9675612B2, “Substituted thiazolopyrimidines” (BAYER PHARMA AKTIENGESELLSCHAFT, priority 2013, dated 2017).
